# Measurements from patent US7320785B2, “Compositions and methods for modulation of DARPP-32 phosphorylation” (The Rockefeller University, priority 2001, dated 2008).
# Read-outs that look alike come from different tables or passages of the source. Marks after values point to notes of the source that are not given here.
# B1: PP2Cg: recombinant his-tagged gamma isoform of protein phosphatase 2C cloned from rat striatum (protein)
# chain: MGAYLSQPNTVKCSGDGVGAPRLPLPYGFSAMQGWRVSMEDAHNCIPELDNETAMFSVYDGHGGEEVALYCAKYLPDIIKDQKAYKEGKLQKALQDAFLAIDAKLTTDEVIKELAQIAGRPTEDEDDKEKVADEDDVDNEEAALLHEEATMTIEELLTRYGQNCQKGPPHTKSGTGIGDEPEPQGLNGEAGPEDPSRETPSQENGPTAKGHTGPSSNSDHGTEAGQIGEPGTATGEAGPSCSSASDKLPRVAKSKFFEDSEDESDEVEEEEDDSEECSEDEDGYSSEEAENEEDEDDTEEAEEDDDEEMMVPGMEGKEEPGSDSGTTAVVALIRGKQLIVANAGDSRCVVSEAGKALDMSYDHKPEDEVELARIKNAGGKVTMDGRVNGGLNLSRAIGDHFYKRNKNLPPQEQMISALPDIKVLTLTDDHEFMVIACDGIWNVMSSQEVVDFIQSKISQRDENGELRLLSSIVEELLDQCLAPDTSGDGTGCDNMTCIIICFKPRNTVELQPESGKRKLEEALSTEGAEENGNSDKKKAKRD
# modifications: left off: small tags and cut ends
# notes: recombinant his-tagged gamma isoform of protein phosphatase 2C cloned from rat striatum
# B2: PP2Cb: recombinant his-tagged beta isoform of protein phosphatase 2C cloned from rat striatum (protein, UniProt P35815 2-390, looked up)
# Protein phosphatase 1B: GAFLDKPKTEKHNAHGAGNGLRYGLSSMQGWRVEMEDAHTAVVGIPHGLEDWSFFAVYDGHAGSRVANYCSTHLLEHITTNEDFRAADKSGFALEPSVENVKTGIRTGFLKIDEYMRNFSDLRNGMDRSGSTAVGVMISPTHIYFINCGDSRAVLCRNGQVCFSTQDHKPCNPMEKERIQNAGGSVMIQRVNGSLAVSRALGDYDYKCVDGKGPTEQLVSPEPEVYEILRAEEDEFVVLACDGIWDVMSNEELCEFVNSRLEVSDDLENVCNWVVDTCLHKGSRDNMSIVLVCFANAPKVSDEAVKRDLELDKHLESRVEEIMQKSGEEGMPDLAHVMRILSAENIPNLPPGGGLAGKRNVIEAVYSRLNPNKDNDGGAGDLEDSLVAL
# modifications: His tag
# notes: recombinant his-tagged beta isoform of protein phosphatase 2C cloned from rat striatum
# Tests used:
# DARPP-32 [1] = assay: DARPP-32 phosphorylation in mouse brain slices, immunoblotting with phosphorylation state-specific antibodies; settings: for phospho-Thr34 DARPP-32 / phospho-Thr75 DARPP-32: prefrontal cortex slices, n=6; for phospho-Thr34 DARPP-32: 2 min of incubation; for phospho-Thr75 DARPP-32: 10 min of incubation
# DARPP-32 [2] = settings: cited from earlier work
# [3] = pNPP hydrolysis by recombinant PP2C isoforms (phosphatase assay); format: biochemical, rat; settings: for Vmax of pNPP hydrolysis, Mn^2+ compared to Mg^2+ (higher): 20 mM Mn^2+ versus 20 mM Mg^2+; for Vmax / kcat / Km: pNPP as substrate; for Km: 37° C.
# Description: The activity of PP2C isoforms using pNPP as substrate was assayed as previously described (Brumel et al., 1997). […] The reaction was stopped by addition of 1 ml of 0.1 M NaOH, and the initial rate of p-nitrophenol release was determined spectrophotometrically at 405 nm (using a molar extinction coefficient of 18 000 M−1 cm−1).
# (§1) Kinetic parameters (Km and Vmax) were determined from Lineweaver-Burk plots.
# Legend Table 7. Enzymatic activities of PP2C isoforms assayed using pNPP as substrate. Phosphatase activity was measured using pNPP as substrate by the change in absorbance at 405 nm. Km and Vmax values were calculated from Lineweaver-Burk plots of the data.
# phospho-Ser137-DARPP-32 = assay: Dephosphorylation of phospho-Ser137-DARPP-32 by recombinant PP2C isoforms; format: biochemical, rat; settings: [^32P]phospho-Ser137 DARPP-32 as substrate; in the presence of 10 mM Mn^2+
# Description: The activity of PP2C isoforms using ^32P-DARPP (phosphorylated at Ser137) was assayed at 37° C. in a reaction mixture containing 25 mM Tris-HCl, pH 7.5, 10 mM MnCl2, 1% BSA, and […] substrate, in a total volume of […]. Reactions were stopped by addition of […] of 50% trichloroacetic acid. Samples were then incubated on ice for 30 min and centrifuged at 10,000 g for 10 min at 4° C. Radioactivity recovered in the supernatant was measured by Cerenkov counting in a scintillation counter (Beckman).
# as §1
# Legend Table 8. Enzymatic activities of PP2C isoforms assayed using [^32P]phospho-Ser137 DARPP-32 as substrate. Phosphatase activity was measured by the release of ^32P, and Km and Vmax values were calculated from Lineweaver-Burk plots of the data.
# [4] = neostriatal slices, compound at 100 μM, 2 min incubation, vehicle control = 100
# [5] = neostriatal slices, compound at 100 μM, 10 min incubation, vehicle control = 100
# [6] = Mus musculus, 2 min, read-out: Percent Phospho-Thr34
# [7] = Mus musculus, 10 min, read-out: Percent Phospho-Thr75
# [8] = Mus musculus, 2 min, read-out: Percent Phospho-Ser137
# [9] = neostriatal slices, compound at 10 μM, 2 min incubation
# [10] = neostriatal slices, compound at 10 μM, 10 min incubation
# [11] = neostriatal slices, compound at 300 μM, 2 min incubation
molecule,measurement,setting,value
"COc1cc(CC(C)N)c(OC)cc1I.Cl (racemic) [DOI, (±)-2,5-dimethoxy-4-iodoamphetamine hydrochloride; (±)-1-(2,5 dimethoxy-4-iodophenyl)-2-aminopropane]",Percent Phospho-Ser137,DARPP-32 [1]; [4],158(8.3)* Percent
same,Percent Phospho-Thr34,DARPP-32 [1]; [4],144(16.7) Percent
same,Percent Phospho-Thr75,DARPP-32 [1]; [5],105(4.5) Percent
same,EC50,"DARPP-32 [1]; read-out: EC50 at phospho-Ser137 DARPP-32, neostriatal slices",18.2 µM
N[C@@H]1C[C@H]1c1ccccc1 (racemic) [tranylcypromine],frontal cortex levels of DARPP-32 immunoreactivity,"DARPP-32 [2]; rat, in vivo",significant increases
"COc1ccc2[nH]cc(CCN)c2c1 [5-MT, 5-methoxytryptamine]",activity at 100 µM,DARPP-32 [1]; [6],261 ± 31%
same,activity at 100 µM,DARPP-32 [1]; [7],76 ± 7%
same,Percent Phospho-Thr34,DARPP-32 [1]; [4],261(31.5)* Percent
same,Percent Phospho-Thr75,DARPP-32 [1]; [5],76(7.6)* Percent
Clc1cccc(SC2CCNCC2)n1 [Anpirtoline],activity at 100 µM,DARPP-32 [1]; [8],93%
same,activity at 100 µM,DARPP-32 [1]; [6],86%
same,activity at 100 µM,DARPP-32 [1]; [7],102%
NCCNS(=O)(=O)c1ccc(Cl)c2ccncc12 [CK1-7],Percent Phospho-Ser137,DARPP-32 [1]; [4],87(4.0)* Percent
same,Percent Phospho-Thr34,DARPP-32 [1]; [4],102(11.5) Percent
same,Percent Phospho-Thr75,DARPP-32 [1]; [5],96(10.0) Percent
CN1CCN(C2=Nc3cc(Cl)ccc3Nc3ccccc32)CC1 [Clozapine],activity at 10 µM,DARPP-32 [1]; [8],105%
same,activity at 10 µM,DARPP-32 [1]; [6],124%
same,activity at 10 µM,DARPP-32 [1]; [7],101%
"CCc1[nH]c2ccc(OC)cc2c1CCN(C)C [EMDT, 2-ethyl-5-methoxy-N,N-dimethyltryptamine]",EC50,"DARPP-32 [1]; Mus musculus, 2 min, read-out: EC50 for effect on DARPP-32 phosphorylation at Thr34",20.5 µM
same,EC50,"DARPP-32 [1]; Mus musculus, 10 min, read-out: EC50 for effect on DARPP-32 phosphorylation at Thr75",27.4 µM
same,phospho-Thr34 DARPP-32,DARPP-32 [1],185±19%
same,phospho-Thr75 DARPP-32,DARPP-32 [1],80±17%
O=C(c1ccc(F)cc1)C1CCN(CCn2c(=O)[nH]c3ccccc3c2=O)CC1 [Ketanserin],activity at 10 µM,DARPP-32 [1]; [8],97%
same,activity at 10 µM,DARPP-32 [1]; [6],94%
same,activity at 10 µM,DARPP-32 [1]; [7],105%
"c1ccc2sc(N3CCN(Cc4ccc5c(c4)OCO5)CC3)nc2c1 [PPB, 2-[1-(4-Piperonyl)piperazinyl]benzothiazole]",Percent Phospho-Ser137,DARPP-32 [1]; [4],108(2.0) Percent
same,Percent Phospho-Thr34,DARPP-32 [1]; [4],218(36.1)* Percent
same,Percent Phospho-Thr75,DARPP-32 [1]; [5],72(8.8)* Percent
same,phospho-Thr34 DARPP-32,DARPP-32 [1],203±15%
same,phospho-Thr75 DARPP-32,DARPP-32 [1],84±4%
CCN1CCC[C@H]1CNC(=O)c1c(O)c(Cl)cc(Cl)c1OC [Raclopride],activity at 10 µM,DARPP-32 [1]; [8],101%
same,activity at 10 µM,DARPP-32 [1]; [6],150%
same,activity at 10 µM,DARPP-32 [1]; [7],85%
CNc1cc(NS(=O)(=O)c2ccc(N)cc2)nc(NC)n1 [Ro 07-6790],Percent Phospho-Ser137,DARPP-32 [1]; [9],105(7.3) Percent
same,Percent Phospho-Thr34,DARPP-32 [1]; [9],90(8.7) Percent
same,Percent Phospho-Thr75,DARPP-32 [1]; [10],101(12.5) Percent
Nc1ncnc2c1ncn2[C@@H]1O[C@@H]2CO[P@@](O)(=S)O[C@H]2[C@H]1O [RpcAMPs],Percent Phospho-Ser137,DARPP-32 [1]; [11],108(10.0) Percent
same,Percent Phospho-Thr34,DARPP-32 [1]; [11],88(13.1) Percent
same,Percent Phospho-Thr75,"DARPP-32 [1]; neostriatal slices, compound at 300 μM, 10 min incubation",105(7.2) Percent
CN1CCc2cc(Cl)c(O)cc2[C@@H](c2ccccc2)C1 [SCH23390],activity at 10 µM,DARPP-32 [1]; [6],76%
same,activity at 10 µM,DARPP-32 [1]; [7],109%
"CCN(CC)CCOC(=O)c1cc(Cl)c(N)cc1OC [SDZ205,557]",Percent Phospho-Ser137,DARPP-32 [1]; [9],102(8.8) Percent
same,Percent Phospho-Thr34,DARPP-32 [1]; [9],94(16.7) Percent
same,Percent Phospho-Thr75,DARPP-32 [1]; [10],103(17.5) Percent
C=CCN1CCc2c(cc(O)c(O)c2Cl)C(c2ccccc2)C1 (centres unmarked) [SKF 82958],activity at 10 µM,DARPP-32 [1]; [8],115%
same,activity at 10 µM,DARPP-32 [1]; [6],552%
same,activity at 10 µM,DARPP-32 [1]; [7],65%
NC1CCN(c2cccc(Cl)n2)CC1 [SR 57227],Percent Phospho-Ser137,DARPP-32 [1]; [4],105(9.6) Percent
same,Percent Phospho-Thr34,DARPP-32 [1]; [4],78(3.5)* Percent
same,Percent Phospho-Thr75,DARPP-32 [1]; [5],88(4.8) Percent
NC1=N[C@H](O)[C@H]2[C@H]3O[C@]4(O)O[C@@H]([C@@H](O)[C@@]2(N1)[C@@H]4O)[C@]3(O)CO [Tetrodotoxin],Percent Phospho-Ser137,DARPP-32 [1],98(12.5) Percent
same,Percent Phospho-Thr34,DARPP-32 [1],91.8(5.8) Percent
same,Percent Phospho-Thr75,DARPP-32 [1],103(3.5) Percent
COc1ccc2c(c1)CC[C@@H]1[C@@H]2CC[C@]2(C)[C@@H](NCCCCCCN3C(=O)C=CC3=O)CC[C@@H]12 [U-73122],Percent Phospho-Ser137,DARPP-32 [1]; [9],86(6.2)* Percent
same,Percent Phospho-Thr34,DARPP-32 [1]; [9],117(10.9) Percent
same,Percent Phospho-Thr75,DARPP-32 [1]; [10],90(6.6) Percent
O=C(CCCN1CCC(O)(c2ccc(Cl)cc2)CC1)c1ccc(F)cc1 [haloperidol],frontal cortex levels of DARPP-32 immunoreactivity,DARPP-32 [2]; chronic administration in rats,without effects
CN(C)CCCN1c2ccccc2CCc2ccccc21 [imipramine],frontal cortex levels of DARPP-32 immunoreactivity,DARPP-32 [2]; chronic administration in rats,significant increases
CN1CC[C@]23c4c5ccc(O)c4O[C@H]2[C@@H](O)C=C[C@H]3[C@H]1C5 [morphine],frontal cortex levels of DARPP-32 immunoreactivity,"DARPP-32 [2]; rat, in vivo",without effects
B1,"Vmax of pNPP hydrolysis, Mn^2+ compared to Mg^2+ (higher)",[3],15 fold
same,"Km of pNPP hydrolysis, Mn^2+ compared to Mg^2+ (lower)",[3]; Mn^2+ substitutes Mg^2+,24 fold
same,Vmax,[3]; in the presence of 20 mM Mg^2+,0.09 µmol/mg/min
same,kcat,[3]; in the presence of 20 mM Mg^2+,0.094 s⁻¹
same,Km,[3]; in the presence of 20 mM Mg^2+,12800 µM
same,Vmax,[3]; in the presence of 20 mM Mn^2+,1.29 µmol/mg/min
same,kcat,[3]; in the presence of 20 mM Mn^2+,1.35 s⁻¹
same,Km,[3]; in the presence of 20 mM Mn^2+,520 µM
same,Km,phospho-Ser137-DARPP-32,7 µM
same,Vmax,phospho-Ser137-DARPP-32,0.31 µmol/mg/min
same,kcat,phospho-Ser137-DARPP-32,0.32 s⁻¹
B2,"Vmax of pNPP hydrolysis, Mn^2+ compared to Mg^2+ (higher)",[3],approximately 50 fold
same,Vmax,[3]; in the presence of 20 mM Mg^2+,0.20 µmol/mg/min
same,kcat,[3]; in the presence of 20 mM Mg^2+,0.16 s⁻¹
same,Km,[3]; in the presence of 20 mM Mg^2+,3200 µM
same,Vmax,[3]; in the presence of 20 mM Mn^2+,10.72 µmol/mg/min
same,kcat,[3]; in the presence of 20 mM Mn^2+,8.42 s⁻¹
same,Km,[3]; in the presence of 20 mM Mn^2+,2290 µM
same,Km,phospho-Ser137-DARPP-32,25.3 µM
same,Vmax,phospho-Ser137-DARPP-32,0.99 µmol/mg/min
same,kcat,phospho-Ser137-DARPP-32,0.78 s⁻¹
